Reference: the supplement of paper PMC8671470

How the values were obtained:
Conditions in all cases: 72 h
KG-1 = experiment: cell viability (% survival relative to DMSO control, bortezomib = 0%); higher = less cytotoxic
Method in brief: (§1)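 Reported values are percent survival from duplicate wells, averaged. Fifteen myeloid leukaemia cell lines were treated in 384-well plates with compounds at 1, 10, 100, 1000 or 10000 nM for 72 h at 37 °C in 5% CO2. Signals from CellTiter-Glo luminescence were scaled with vehicle as 100% and a 10 µM positive control as 0%.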

MOLM-13 = experiment: as above
Method in brief: as §1

LAMA-84 = experiment: as above
Method in brief: as §1

KCL-22 = experiment: as above
Method in brief: as §1

HEL = experiment: as above
Method in brief: as §1

THP-1 = experiment: as above
Method in brief: as §1

HL-60 [1] = experiment: as above
Method in brief: as §1

K-562 = experiment: as above
Method in brief: as §1

BV-173 = experiment: as above
Method in brief: as §1

KU-812 = experiment: as above
Method in brief: as §1

SHI-1 = experiment: as above
Method in brief: as §1

NOMO-1 = experiment: as above
Method in brief: as §1

ML-2 = experiment: as above
Method in brief: as §1

MV4-11 [2] = experiment: as above
Method in brief: as §1

Mono-Mac-6 = experiment: as above
Method in brief: as §1

HL-60 [3] = experiment: area under dose-response curve (viability, 1 nM-10 uM) (fraction (0-1)); higher = more sensitive
Method in brief: (§2)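 Four-parameter log-logistic fits in drc and PharmacoGx supplied area under the curve where it is given. Underlying viability came from CellTiter-Glo, normalised to DMSO and proteasome-inhibitor wells, with the proteasome inhibitor at 10 μM. HL-60 cells in RPMI 1640 plus 10% FBS had been rescreened against the full library at five tenfold concentrations of 1–10,000 nM, in duplicate on 384-well plates, with DMSO or 100 nM of one of three metabolic inhibitors, for 72 h at 37 °C, 5% CO2.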

MV4-11 [4] = system: MV4-11
Method in brief: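 The IC50 was derived from log-logistic dose–response fitting. Each of fifteen myeloid leukaemia cell lines, seeded in RPMI 1640 within its linear growth range, was exposed in 384-well plates to five tenfold doses (1 to 10,000 nM) in duplicate for 72 h at 37 °C and 5% CO2. Luminescent ATP viability readings were normalised to vehicle and to a positive control at 10 µM before four-parameter curve fitting.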

HL-60 [5] = experiment: cell viability (% survival relative to DMSO control); higher = less cytotoxic
Method in brief: as §2

CC[C@@]1(O)C(=O)OCc2c1cc1n(c2=O)Cc2cc3c(CN(C)C)c(O)ccc3nc2-1 [Topotecan]
Conditions	area under dose-response curve, co-treatment: AZD3965 100 nM	area under dose-response curve, co-treatment: DMSO vehicle	area under dose-response curve, co-treatment: GSK2194069 100 nM	area under dose-response curve, co-treatment: pictilisib 100 nM	cell viability, 1 nM [%]	cell viability, 10 nM [%]	cell viability, 100 nM [%]	cell viability, 1000 nM [%]	cell viability, 10000 nM [%]
BV-173	–	–	–	–	100	56.7	-0.0236	0.0225	0.196
HEL	–	–	–	–	94.8	103	0.201	0.373	0.268
HL-60 [1]	–	–	–	–	94.9	81.7	0.181	0.081	1.02
HL-60 [3]	0.608	0.585	0.58	0.597	–	–	–	–	–
K-562	–	–	–	–	90.8	92.7	48.3	13.2	4.27
KCL-22	–	–	–	–	97.2	97.8	27.9	5.33	1.56
KG-1	–	–	–	–	95.6	91.2	21.3	8.99	6.8
KU-812	–	–	–	–	95.5	99.6	13.1	3.16	1.45
LAMA-84	–	–	–	–	93.6	97.4	29.2	1.78	0.506
ML-2	–	–	–	–	94.6	84.8	0.565	0.238	3.1
MOLM-13	–	–	–	–	91.4	70.9	0.317	2.79	0.537
MV4-11 [2]	–	–	–	–	91.1	54.2	2	2.09	-0.156
Mono-Mac-6	–	–	–	–	87.3	98	2.7	0.495	0.236
NOMO-1	–	–	–	–	98.7	98.9	12.6	2.17	0.853
SHI-1	–	–	–	–	97.1	85.8	0.99	-0.151	0.783
THP-1	–	–	–	–	98.8	102	78.5	30.4	13.6

Conditions	IC50 (cell viability) [nM]
MV4-11 [4]	11.9

cell viability [%], HL-60 [5]
Conditions	0.001 µM	0.01 µM	0.1 µM	1 µM	10 µM
co-treatment: AZD3965 100 nM	99.6	98.4	7.08	3.55	2.51
co-treatment: DMSO vehicle	101	103	11.5	5.98	2.79
co-treatment: GSK2194069 100 nM	91.07	111	10.4	6.25	3.68
co-treatment: pictilisib 100 nM	102	98	9.22	5.76	3.31

O=C(O)C1=CC(=C(c2ccc(O)c(C(=O)O)c2)c2ccc(O)c(C(=O)O)c2)C=CC1=O [Aurintricarboxylic acid]
Conditions	area under dose-response curve, co-treatment: AZD3965 100 nM	area under dose-response curve, co-treatment: DMSO vehicle	area under dose-response curve, co-treatment: GSK2194069 100 nM	area under dose-response curve, co-treatment: pictilisib 100 nM	cell viability, 1 nM [%]	cell viability, 10 nM [%]	cell viability, 100 nM [%]	cell viability, 1000 nM [%]	cell viability, 10000 nM [%]
BV-173	–	–	–	–	114	104	107	88.3	9.49
HEL	–	–	–	–	108	85.9	115	92.5	21.8
HL-60 [1]	–	–	–	–	103	87.8	103	91.1	111
HL-60 [3]	< 0.0301	< 0.0301	< 0.0301	< 0.0301	–	–	–	–	–
K-562	–	–	–	–	88.9	104	82	101	128
KCL-22	–	–	–	–	131	94.8	92	116	119
KG-1	–	–	–	–	104	94.5	99.9	89.6	78.9
KU-812	–	–	–	–	98	102	106	96	102
LAMA-84	–	–	–	–	105	102	100	89	106
ML-2	–	–	–	–	107	97.7	97.5	96.4	92.9
MOLM-13	–	–	–	–	91.3	101	107	82.8	30.9
MV4-11 [2]	–	–	–	–	103	100	86.3	97	71.9
Mono-Mac-6	–	–	–	–	98.6	98.6	104	105	89.7
NOMO-1	–	–	–	–	95.8	108	109	90.1	80.9
SHI-1	–	–	–	–	104	91.8	99	100	114
THP-1	–	–	–	–	105	101	109	97.5	99.4

Conditions	IC50 (cell viability) [nM]
MV4-11 [4]	> 10000

cell viability [%], HL-60 [5]
Conditions	0.001 µM	0.01 µM	0.1 µM	1 µM	10 µM
co-treatment: AZD3965 100 nM	95.9	101	101	94.5	98.9
co-treatment: DMSO vehicle	101	81.6	106	104	97.6
co-treatment: GSK2194069 100 nM	94.1	82.3	98.7	98.3	82.5
co-treatment: pictilisib 100 nM	99.3	99.3	96.2	101	103
